The source of these data is PMC7016953 (Cells, 2020).

In one assay the target is T1, TRPC3 (Homo sapiens, UniProt Q13507).
T1 construct: expressed in transfected cells
T1 sequence (Q13507 1-848 isoform Q13507-3): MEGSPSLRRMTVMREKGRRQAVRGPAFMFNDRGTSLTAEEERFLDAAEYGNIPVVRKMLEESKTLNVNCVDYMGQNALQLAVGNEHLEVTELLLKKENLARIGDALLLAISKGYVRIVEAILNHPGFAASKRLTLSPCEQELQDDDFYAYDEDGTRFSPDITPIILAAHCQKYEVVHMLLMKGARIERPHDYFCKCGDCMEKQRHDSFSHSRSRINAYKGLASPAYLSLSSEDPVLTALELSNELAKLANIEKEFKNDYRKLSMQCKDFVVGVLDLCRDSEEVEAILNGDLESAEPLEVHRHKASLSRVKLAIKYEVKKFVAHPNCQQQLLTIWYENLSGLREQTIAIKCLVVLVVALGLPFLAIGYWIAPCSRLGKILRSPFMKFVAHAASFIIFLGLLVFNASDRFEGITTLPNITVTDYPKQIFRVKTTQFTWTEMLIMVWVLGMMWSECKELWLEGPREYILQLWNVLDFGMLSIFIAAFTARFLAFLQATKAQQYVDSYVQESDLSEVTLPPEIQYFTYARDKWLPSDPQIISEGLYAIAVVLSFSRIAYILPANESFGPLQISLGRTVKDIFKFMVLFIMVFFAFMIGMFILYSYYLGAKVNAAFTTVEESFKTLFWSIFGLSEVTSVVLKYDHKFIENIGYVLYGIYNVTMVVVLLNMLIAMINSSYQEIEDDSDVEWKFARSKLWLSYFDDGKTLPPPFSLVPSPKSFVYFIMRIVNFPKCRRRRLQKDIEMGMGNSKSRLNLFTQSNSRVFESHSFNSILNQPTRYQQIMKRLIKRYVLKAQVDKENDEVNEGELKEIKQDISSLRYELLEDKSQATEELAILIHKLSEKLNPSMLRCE
Nature of the assay: Fluo-4 Ca2+ influx assay in HEK TRPC3-YFP cell suspensions. In kind it is cell-based. The settings on record: for IC50: inhibitor 5 min, then 50 µM artemisinin, fluo-4, read-out: IC50 for inhibition of artemisinin-induced increases in [Ca2+]i; for effect of preincubation on responses to artemisinin (1–200 µM): 10 µM for 5 min; for TRPC3 activation in concentration response analysis: fluo-4, up to 200 µM, compared with solvent (DMSO).

The subject of assay [1] is PC12 cells (native TRPC3 channel complexes). The assay is described as follows: Whole-cell patch-clamp recordings in PC12 cells. It is filed as cell-based, rat. The settings on record: 20 µM CBN 2910-0498, 10 µM SAR7334, or 10 µM GSK417654A. How it is done:
The recordings of TRPC3, TRPC6, or TRPC7 membrane currents in HEK293 or PC12 cells were realized by using a Multiclamp 700B amplifier with a Digidata 1440A digitizer controlled by the PClamp 10 software (all Molecular Devices, Sunnyvale, CA, U.S.A.). Recordings were obtained at room temperature either in the whole-cell or in an outside-out configuration as indicated. Cells were seeded as described above, but at lower density, mounted in a chamber (Warner Instruments, Hamden, CT; U.S.A.), placed onto the stage of an inverted microscope, and perfused with required solution. The standard extracellular solution contained 140 mM NaCl, 5 mM CsCl, 2 mM MgCl2, 1 mM CaCl2, 10 mM HEPES, and 0.035% BSA adjusted to pH 7.4 with NaOH. The composition of standard intracellular solution was 140 mM CsCl, 1 mM MgCl2, 5 mM EGTA, and 10 mM HEPES adjusted to pH 7.25 with CsOH; the osmolarity was 295 mOsm l^−1. In outside-out measurements, the pipette solution contained 5 mM EGTA and 1.1 mM CaCl2 to achieve a calculated free Ca^2+ concentration of 100 nM.
Patch pipettes were pulled from borosilicate glass capillaries BG150F-8P (Science Products, Hofheim, Germany) with a PIP6 pipette puller (HEKA Elektronik, Lambrecht, Germany). […] In all whole-cell measurements, the series resistance was lower than 13 MΩ, and compensated by 70%. If the access was unstable during the experiment (increase in series resistance by more than 15% at the end of the experiment), the cell was omitted from the analysis. To record current/voltage (I/V) curves, voltage ramps (400 mV s^−1) ranging from –100 to +100 mV were applied. Currents were filtered at 3 kHz with a four-pole Bessel filter and sampled at 10 kHz. […]
Figure 9 Artemisinin-induced ionic currents in HEK293 cells and in PC12 cells are sensitive to established TRPC3 inhibitors. […] Concentration–response curves were normalized to responses measured without an inhibitor (controls), and IC50 values were obtained by fitting a four-parameter Hill equation to the data. […]

For assay [2] the test system is unchanged. Nature of the assay: [Ca2+]i analysis in fura-2-loaded PC12 cells. It is filed as cell-based, rat. The settings on record: artemisinin 50 or 100 µM; 6–12 experiments for each compound. How it is done: Human embryonic kidney 293 (HEK293) cells were stably transfected with expression plasmids that encode hTRPC3-YFP, hTRPC6-YFP, hTRPC7-YFP, mTRPC4ß-YFP, rTRPV1-CFP, rTRPV2-YFP, rTRPV3-YFP, mTRPV4-YFP, or hTRPM2 as previously described. Cell lines were cultured in Earle’s minimum essential medium (MEM; Sigma, Munich, Germany), supplemented with 10% fetal calf serum (Gibco Thermo Fisher Scientific, Darmstadt, Germany), 2 mM L-glutamine, and required concentrations of geneticin in a range of 0.4–1 mg/mL. A HEK293mTRPC5-YFP cell line was maintained and induced as described before. The HEK293mTRPM3α2 cells (expressing the Ca^2+-permeable main variant of mouse TRPM3) were kindly provided by Johannes Oberwinkler (Marburg, Germany), the HEK293hTRPA1 cells that constitutively overexpress the human TRPA1 were from Dr. Natalie Tigue and Dr. Steve Moore (GlaxoSmithKline, Harlow, UK). With the exception of mTRPC5-YFP, all cell lines constitutively overexpress the respective TRP channel under the control of a cytomegalovirus (CMV) promoter. A HEK cell line stably expressing the human protein kinase C (PKC) ε C-terminally tagged with YFP [13] was generated and maintained in the same medium as HEKTRPC3-YFP cells. PC12 cells were cultured in RPMI-1640 (Sigma, Munich, Germany) with 10% fetal calf serum, 2 mM L-glutamine, 100 U/mL penicillin, and 0.1 mg/mL streptomycin. For electrophysiological and single cell [Ca^2+]i imaging experiments, PC12 cells were plated onto 25 mm poly-L-lysine-coated glass coverslips and measured 24–48 h after seeding. All cells were maintained at 37 °C in a 5% CO2-aerated, humidified atmosphere.
The microfluorometric single-cell [Ca^2+]i analysis was performed on an inverted epifluorescence microscope (Carl Zeiss, Jena, Germany) and calibrated as described. Cells were grown on 25 mm coverslips and loaded with 4 µM fura-2/AM (AAT Bioquest, Sunnyvale, CA, U.S.A.) in HBS containing 0.2% BSA for 30 min at 37 °C. After gently rinsing the coverslips with HBS, coverslips were mounted in a bath chamber and superfused with HBS containing 0.035% BSA.
Figure 7 Expression of TRPC3 and functional responses to TRPC activators in PC12 rat pheochromocytoma cells. (A) Immunofluorescence analysis of TRPC3 (green channel) and tyrosine hydroxylase (TH; red channel) expression in PC12 cells. Nuclei were counterstained with DAPI (blue channel). Bars: 20 µm scale. Time course of the [Ca^2+]i (B) and averaged basal and peak [Ca^2+]i values (C) were recorded by microfluorometric analysis in fura-2-loaded PC12 cells grown on glass coverslips. […] Data represent averages (B) or means and S.D. (C) of 6–12 imaging experiments for each compound. Significant increases compared to the respective basal values are indicated (#: p < 0.05; Student´s t-test for paired data).

The subject of a further assay is T2, hTRPC7-YFP.
T2 construct: expressed in transfected cells
Nature of the assay: Fluo-4 Ca2+ influx assay in HEK293 cells stably expressing TRPC7. In kind it is cell-based, human. The settings on record: fluo-4 concentration response analysis.

In assay [3] the test system is T3, heteromeric TRPC3:TRPC6 channel complexes.
T3 construct: expressed in transfected cells; host or cells: HEK293, stably co-transfected
The assay is described as follows: Fluo-4 Ca2+ influx assay in HEK293 cells co-expressing TRPC3 and TRPC6. As to conditions: fluo-4 concentration response analysis. It is filed as cell-based. On the procedure: All fluorometric Ca^2+ assays were done in (4-(2-hydroxyethyl)-1-piperazineethanesulfonic acid) (HEPES)-buffered saline (HBS), containing 132 mM NaCl, 6 mM KCl, 1 mM MgCl2, 1 mM CaCl2, 5.5 mM D-glucose, 10 mM HEPES, and 0.035% bovine serum albumin (BSA) adjusted to pH 7.4 with NaOH. For measurements in Ca^2+-free bath solutions, a modified HBS without CaCl2 was supplemented with 200 µM ethylene glycol-bis(β-aminoethyl ether)-N,N,N′,N′-tetraacetic acid (EGTA).
The primary compound screen and the generation of concentration response curves in HEK293 cells or in PC12 cells were performed by using a custom-made fluorescence plate imager built into a robotic liquid handling station equipped with a 96-tip multichannel head (Freedom Evo 150, Tecan, Männedorf, Switzerland) as described previously. To this end, trypsinized cell suspensions were loaded with 4 µM fluo-4/AM (Invitrogen, Thermo Fisher Scientific, Waltham, MA, U.S.A.) in cell culture medium for 30 min at 37 °C. After brief centrifugation, cells were resuspended in HBS and dispensed into black pigmented, clear-bottom 384-well plates (Greiner µClear, Frickenhausen, Germany). Plates were mounted on the imager, and fluorescence signals were recorded with a cooled Zyla 5.5 camera (Andor, Belfast, UK) through a 515 nm long pass filter. The image acquisition was controlled by the µManager software (http://micro-manager.org), and excitation with a LED array (470 nm) was synchronized by the camera trigger output. After baseline recording for about 60 s, the compound libraries or serial dilutions of activators or inhibitors were added to the cells by the liquid handling device. When inhibitory potencies were evaluated, a second pipetting step with the respective reference agonist was performed. Fluorescence intensities were calculated from image stacks for each well with ImageJ (National Institutes of Health, Bethesda, MD, U.S.A.), corrected for background signals, and normalized to the initial intensities (F/F0). […]

In general, IC50 refers to the point on the concentration scale where inhibition reaches its midpoint. For the molecule `COc1ccc(Nc2nc(C(=O)N3CCc4ccccc4C3)cs2)cc1` [GSK417654A], the IC50 on TRPC3 was found to be 500 nM. In assay [1], the “effect on ionic currents stimulated by 50 µM artemisinin in PC12 cells” value is “rapidly reversed”. For `O=C(c1cc2c(s1)CCCCC2)N1CCC(n2c(=O)[nH]c3ccccc32)CC1` [GSK-1702934A], the “[Ca2+]i in fura 2-loaded PC12 cells” value in assay [2] is “significant increases in [Ca^2+]i”. For `O=c1c2ccccc2[nH]c(=S)n1CCN1CCC(=C(c2ccc(F)cc2)c2ccc(F)cc2)CC1` [R59949], the “effect of preincubation on responses to artemisinin (1–200 µM)” value on TRPC3 was “did not increase the responses”.

For the molecule `O=C(NCCCCCCNC(=O)ON=C1CCCCC1)ON=C1CCCCC1` [RHC 80267], the “effect of preincubation on responses to artemisinin (1–200 µM)” value on TRPC3 is “did not increase the responses”.

In the case of `N#Cc1ccc(O[C@@H]2c3ccccc3C[C@H]2N2CCC[C@@H](N)C2)c(Cl)c1` [SAR7334], the IC50 at TRPC3 worked out at 1400 nM. In assay [1], the “effect on ionic currents stimulated by 50 µM artemisinin in PC12 cells” value is “rapidly reversed”. As to `CCO[C@H]1O[C@@H]2O[C@@]3(C)CC[C@H]4[C@H](C)CC[C@@H]([C@H]1C)[C@@]24OO3` [arteether], the “TRPC3 activation in concentration response analysis” value on TRPC3 is recorded as “did not exert signals that were significantly stronger than responses to the solvent”. The “effect on TRPC7” value in the assay on hTRPC7-YFP is listed as “inhibited”. Consider `CO[C@H]1O[C@@H]2O[C@@]3(C)CC[C@H]4[C@H](C)CC[C@@H]([C@H]1C)[C@@]24OO3` [artemether], for which the EC50 at TRPC3 (fluo-4, HEK TRPC3-YFP cell suspensions, read-out: potency to activate Ca2+ entry through TRPC3) came out at 14800 nM. Further, in assay [3], the “response of cells stably transfected with both TRPC3 and TRPC6” value is listed as “in a very similar fashion as HEKTRPC3-YFP cells”. Further, the “effect on TRPC7” value with hTRPC7-YFP is “inhibited”. For `C[C@H]1[C@H](OC(=O)CCC(=O)O)O[C@@H]2O[C@@]3(C)CC[C@H]4[C@H](C)CC[C@@H]1[C@@]24OO3` [artesunate], on TRPC3, the “TRPC3 activation in concentration response analysis” value is listed as “did not exert signals that were significantly stronger than responses to the solvent”.
